Series [1] addresses T1, hALDH1a2 (Homo sapiens (Human), UniProt O94788). As to the kind of experiment: Aldh1a2 enzyme inhibition assay (recombinant enzyme, resorufin fluorescence). The series is classed as biochemical.
Another series addresses mALDH1a2 (Mus musculus (Mouse), UniProt Q62148). The description is as above. The series is classed as biochemical. The text has this: Recombinant enzyme and inhibitor added immediately before assay. Reaction rate measured by resorufin fluorescence.
Series [2] has as its target T1, hALDH1a2. As to the kind of experiment: Cell based assay: STRA6 mRNA by q-rtPCR in MCF7 cells expressing ALDH1a2. The note with it: 20 hours incubation, read-out: IC50 (ALDH1a2), STRA6 mRNA levels. Here is the method: (§1) MCF7 cells were stably transduced with lentiviral vectors encoding human ALDH1a1, ALDH1a2 or ALDH1a3 or Vector control and selected by puromycin to establish stable cultures that were verified for overexpression by western blotting and Aldefluor activity. Cells were plated into 6 cm plates in regular DMEM media supplement with […]. At the beginning of the assay, cells were washed with PBS for 5 minutes followed by addition of compound solvated into DMEM media with 10% FBS or corresponding DMSO controls, maintaining DMSO at a constant concentration of 0.1% across all samples. Following 20 hours of incubation at 37 C, cells were lysed and RNA was extracted using a Qiagen RNAeasy kit. cDNA was synthesized using the Superscript IV kit and retinoid activation was measured using STRA6 mRNA levels as a proxy as measured by q-rtPCR.

The target of series [3] is T2, hALDH1a3 (Homo sapiens (Human), UniProt P47895). Nature of the series: Cell based assay: STRA6 mRNA by q-rtPCR in MCF7 cells expressing ALDH1a3. The note with it: 20 hours incubation, read-out: IC50 (Aldh1a3), STRA6 mRNA levels. Here is the method:
as §1

For series [4], the system named is T3-MCA fibrosarcoma cell line allografts. As to the kind of experiment: T3-MCA fibrosarcoma allograft study. Format: in vivo, C57BL6 syngeneic mice. The note with it: for tolerability / tumor growth: oral, 40 mg/kg once daily for twelve days. Here is the method:
In one allograft study, T3-MCA fibrosarcoma cell line allografts were implanted subcutaneously into C57BL6 syngeneic mice. […] Tumor volume were measured on day 8, 14, and 17 post inoculation for each group, and tumor mass were measured at the end of the study.
In another allograft study, T3-MCA fibrosarcoma cell line allografts were implanted subcutaneously into C57BL6 syngeneic mice.

The subject of series [5] is K-Ras, p53 −/− undifferentiated pleiomorphic sarcoma cell line allografts. As to the kind of experiment: K-Ras, p53 -/- undifferentiated pleiomorphic sarcoma allograft study. The series is classed as in vivo, C57BL6 syngeneic mice. The note with it: single agent, 20 days; Compound 140 40 mg/kg intraperitoneal, MBE1.5 25 mg/kg daily equivalent in diet. Here is the method: In another allograft study, K-Ras, p53 −/− undifferentiated pleiomorphic sarcoma cell line allografts were implanted subcutaneously into C57BL6 syngeneic mice. […] Tumor volume were measured on day 14, 17, and 24 post inoculation for each group, and tumor mass were measured at the end of the study.

The subject of series [6] is T3-MCA fibrosarcoma cell line allografts. As to the kind of experiment: Combination with anti-PD-1 in T3-MCA fibrosarcoma allografts. Format: in vivo, C57BL6 syngeneic mice. The note with it: for tumor growth as a single agent: 40 mg/kg daily equivalent, oral medicated diet, Day 9 to Day 25. Here is the method: T3-MCA fibrosarcoma cell line allografts were implanted subcutaneously into C57BL6 syngeneic mice. […] Medicated diet was initiated at Day 9 after mice were randomized and continued until termination at Day 25. Anti-PD-1 antibody was administered by intraperitoneal injection at Day 11, 14, 18 and 21 by a 200 uL injection of a 1 mg/mL solution in saline. Tumor volume were measured on day 14, 18, 22, and 25 post inoculation for each group.

Series [7] can be described thus: Pharmacokinetic profiling in mice. The note with it: for plasma half-life, IV bolus dosing / plasma half-life, PO oral gavage dosing / oral bioavailability: male CD-1/C57BL/6 mice; for plasma half-life, IV bolus dosing / oral bioavailability: 1 mg/kg intravenous; for plasma half-life, PO oral gavage dosing / oral bioavailability: 10 mg/kg oral gavage.
Series [8] deals with T2, hALDH1a3. Nature of the series: Aldh1a3 enzyme inhibition assay (recombinant enzyme, resorufin fluorescence). The note with it: read-out: hAldh1a3 IC50. Format: biochemical. Here is the method: (§2) Cells were resuspended in 10 mM […] pH 7.4, 10 mM KCl. […] Recombinant enzyme and inhibitor added immediately before assay. Reaction rate measured by resorufin fluorescence.
A further series has as its target mALDH1a3 (Mus musculus (Mouse), UniProt Q9JHW9). Described as above. The series is classed as biochemical. The note with it: read-out: mAldh1a3 IC50. Here is the method: as §2
Series [9] deals with primary tumors and metastasis. Nature of the series: Mouse xenograft models, ALDH1a3 inhibitor in conjunction with paclitaxel. The series is classed as in vivo. The note with it: with chemotherapy agent paclitaxel.

Values joined by “and” are separate entries in the source; they are usually repeats but may differ in a detail not shown here. Equal entries are not always repeated. Where only a bound is given, the exact number is not on record here.

T1 sequence (O94788 whole entry): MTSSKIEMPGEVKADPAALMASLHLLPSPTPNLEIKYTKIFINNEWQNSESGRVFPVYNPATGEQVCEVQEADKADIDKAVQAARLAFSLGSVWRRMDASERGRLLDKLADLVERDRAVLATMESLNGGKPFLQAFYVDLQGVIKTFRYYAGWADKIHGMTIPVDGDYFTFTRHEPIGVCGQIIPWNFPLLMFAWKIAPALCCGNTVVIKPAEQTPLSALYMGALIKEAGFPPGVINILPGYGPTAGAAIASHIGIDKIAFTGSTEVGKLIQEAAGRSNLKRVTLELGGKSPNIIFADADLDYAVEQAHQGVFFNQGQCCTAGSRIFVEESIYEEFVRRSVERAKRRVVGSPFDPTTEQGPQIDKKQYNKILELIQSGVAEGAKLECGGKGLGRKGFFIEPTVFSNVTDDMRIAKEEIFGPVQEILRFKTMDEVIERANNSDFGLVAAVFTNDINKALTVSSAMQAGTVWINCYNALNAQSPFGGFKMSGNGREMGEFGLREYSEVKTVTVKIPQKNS
Sequence of mALDH1a3 (Q9JHW9 whole entry): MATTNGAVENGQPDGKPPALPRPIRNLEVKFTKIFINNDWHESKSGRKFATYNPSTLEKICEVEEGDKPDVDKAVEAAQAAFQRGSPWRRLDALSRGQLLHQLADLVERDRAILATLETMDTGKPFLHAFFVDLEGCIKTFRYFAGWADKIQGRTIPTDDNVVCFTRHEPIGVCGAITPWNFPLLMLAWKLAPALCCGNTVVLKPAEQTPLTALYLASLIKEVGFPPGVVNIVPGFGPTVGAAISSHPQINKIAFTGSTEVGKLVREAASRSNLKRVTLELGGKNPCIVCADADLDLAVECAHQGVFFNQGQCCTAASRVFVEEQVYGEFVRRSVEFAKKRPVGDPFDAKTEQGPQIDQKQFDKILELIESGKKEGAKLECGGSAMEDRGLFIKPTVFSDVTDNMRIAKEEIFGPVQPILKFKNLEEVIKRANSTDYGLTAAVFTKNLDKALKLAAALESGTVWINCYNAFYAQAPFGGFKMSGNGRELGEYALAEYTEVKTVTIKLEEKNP
T2 sequence (P47895 whole entry): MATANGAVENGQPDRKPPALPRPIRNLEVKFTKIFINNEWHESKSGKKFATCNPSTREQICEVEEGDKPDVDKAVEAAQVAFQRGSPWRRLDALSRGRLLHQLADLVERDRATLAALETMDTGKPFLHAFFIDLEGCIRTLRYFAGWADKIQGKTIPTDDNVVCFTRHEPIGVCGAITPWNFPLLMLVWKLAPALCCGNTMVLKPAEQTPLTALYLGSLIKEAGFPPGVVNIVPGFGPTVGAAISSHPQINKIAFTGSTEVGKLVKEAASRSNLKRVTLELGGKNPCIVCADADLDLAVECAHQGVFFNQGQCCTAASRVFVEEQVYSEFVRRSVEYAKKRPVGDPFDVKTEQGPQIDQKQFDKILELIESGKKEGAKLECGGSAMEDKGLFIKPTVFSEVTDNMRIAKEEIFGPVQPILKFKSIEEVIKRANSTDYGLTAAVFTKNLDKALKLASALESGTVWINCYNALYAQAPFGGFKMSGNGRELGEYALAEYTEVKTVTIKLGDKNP
Sequence of mALDH1a2 (Q62148 whole entry): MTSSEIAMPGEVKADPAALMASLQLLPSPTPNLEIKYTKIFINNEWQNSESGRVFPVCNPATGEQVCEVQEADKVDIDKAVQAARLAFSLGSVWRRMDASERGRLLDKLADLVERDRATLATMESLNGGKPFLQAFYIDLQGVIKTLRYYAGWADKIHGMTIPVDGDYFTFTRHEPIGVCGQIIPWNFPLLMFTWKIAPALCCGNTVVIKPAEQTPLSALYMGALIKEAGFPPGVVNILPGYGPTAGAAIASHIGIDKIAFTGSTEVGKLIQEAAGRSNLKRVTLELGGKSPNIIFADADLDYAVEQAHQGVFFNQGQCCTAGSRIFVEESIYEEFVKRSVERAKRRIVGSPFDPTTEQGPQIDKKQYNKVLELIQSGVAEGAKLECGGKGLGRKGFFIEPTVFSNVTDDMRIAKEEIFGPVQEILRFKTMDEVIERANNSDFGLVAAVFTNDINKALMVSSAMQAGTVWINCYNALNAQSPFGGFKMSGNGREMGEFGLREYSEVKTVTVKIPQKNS

As for `Cc1cc(NC(=O)c2ccncc2CC(F)(F)F)cc2c1NC(=O)CC2` [Compound 151, N-(8-methyl-2-oxo-3,4-dihydro-1H-quinolin-6-yl)-3-(2,2,2-trifluoroethyl)pyridine-4-carboxamide], the IC50 (in general, the midpoint of a concentration-inhibition curve) was 75 nM on hALDH1a2 [1]; 86 nM at mALDH1a2; 55.3 nM and < 50 nM on hALDH1a2 [2]; 1.25 nM and < 50 nM at hALDH1a3 [3]. In addition, the tolerability entry in series [4] is “excellent tolerability”. Further, in series [4], the tumor growth result is listed as “successful inhibition of tumor growth”.

With `CCc1cnccc1C(=O)Nc1cc(C)c2c(c1)CCC(=O)N2` [Compound 140, 3-ethyl-N-(8-methyl-2-oxo-3,4-dihydro-1H-quinolin-6-yl)pyridine-4-carboxamide], the IC50 at hALDH1a2 [1] is 99 nM; on mALDH1a2 it was 96 nM; on hALDH1a2 [2], 27.6 nM and < 50 nM; at hALDH1a3 [3], 6.97 nM and < 50 nM. Besides, the tolerability result in series [4] is given as “excellent tolerability”. Further, in series [4], the tumor growth result is on record as “successful inhibition of tumor growth”. Also, the “tumor growth (caliper measurement, tumor mass at endpoint)” value is “successful inhibition of tumor growth as a single agent” in [4] (single agent, once daily for 9 days, Compound 140 40 mg/kg intraperitoneal, MBE1.5 25 mg/kg daily equivalent in diet) and “successful inhibition of tumor growth as a single agent” in [5]. In addition, the “tumor growth, combined treatment with anti-PD-1 antibody” value in series [6] (40 mg/kg daily equivalent oral medicated diet plus anti-PD-1 200 microgram i.p. Day 11, 14, 18, 21) is reported as “synergy with anti-PD-1 antibody in causing tumor regression”. Also, the “tumor growth as a single agent” value in series [6] is given as “successful inhibition of tumor growth as a single agent”; in [6] (listed as compound 140) it was “inhibits tumor growth as a single agent”.

As for `CCc1ccccc1C(=O)Nc1cc2c(cc1F)NC(=O)CC2` [Compound 4], in series [7], the “plasma half-life, IV bolus dosing” value is 1.22 h; the “plasma half-life, PO oral gavage dosing” value was 1.70 h; the oral bioavailability was found to be 62.5%.

`CCc1cnccc1C(=O)Nc1cc(Cl)c2c(c1)CCC(=O)N2` [Compound 142, N-(8-chloro-2-oxo-3,4-dihydro-1H-quinolin-6-yl)-3-ethyl-pyridine-4-carboxamide]: the IC50 on hALDH1a3 [8] was below 100 nM; on mALDH1a3, below 100 nM; at hALDH1a2 [1], 57 nM; at mALDH1a2 it was 63 nM.

Consider `Cc1cc(Nc2ncc3ccccc3n2)cc2c1NC(=O)C(C)(C)C2` [Compound 160, 3,3,8-trimethyl-6-(quinazolin-2-ylamino)-1,4-dihydroquinolin-2-one], for which the IC50 is above 5000 nM at hALDH1a3 [8], above 5000 nM at mALDH1a3, 163 nM on hALDH1a2 [1] and 177 nM on mALDH1a2.

On to `CCc1cnccc1C(=O)Nc1cc2c(cc1F)NC(=O)CC2` [MBE1], for which, on hALDH1a2 [2], the IC50 is 1670 nM. The concentration for half-maximal inhibition (IC50) at hALDH1a3 [3] was 3.67 nM. Besides, the “efficacy in conjunction with paclitaxel” value in series [9] was “effective in treating established metastatic diseases”. The “cage side observations, adverse reactions” value in series [7] (0 hours to 24 hours post-dosing, mice) is reported as “no adverse reactions”. Besides, in [7], the “plasma half-life, IV bolus dosing” value was 1.79 h; the “plasma half-life, PO oral gavage dosing” value amounted to 1.37 h; the oral bioavailability was 88%. Further, the “time plasma concentrations exceed 5-fold the IC50” value in series [7] (oral gavage (PO) and intravenous (IV) administration, n=3 mice per group) was above 10 h.

On to `O=C1CCc2cc(NC(=O)c3ccncc3CC(F)(F)F)c(F)cc2N1` [Compound 82], for which the half-maximal inhibitory concentration (IC50) on hALDH1a3 [8] was below 100 nM; on mALDH1a3, 100 to 250 nM; on hALDH1a2 [1] it was 620 nM; on mALDH1a2 it was 941 nM.

With `Cc1cc(NC(=O)c2ccnc3c2CCO3)cc2c1NC(=O)CC2` [Compound 152, N-(8-methyl-2-oxo-3,4-dihydro-1H-quinolin-6-yl)-2,3-dihydrofuro[2,3-b]pyridine-4-carboxamide], the IC50 is 1000 to 5000 nM on hALDH1a3 [8], 250 to 1000 nM on mALDH1a3, 807 nM at hALDH1a2 [1] and 824 nM on mALDH1a2.

Regarding `O=C1CCc2cc(NC(=O)c3ccncc3CC3CC3)ccc2N1` [Compound 59], the IC50 at hALDH1a3 [8] was below 100 nM; on mALDH1a3, below 100 nM; on hALDH1a2 [1] it was 530 nM; at mALDH1a2 it was 487 nM.

On to `CCc1cnccc1C(=O)Nc1cc2c(c3ccncc13)NC(=O)CC2` [Compound 145, 3-ethyl-N-(2-oxo-3,4-dihydro-1H-1,8-phenanthrolin-6-yl)pyridine-4-carboxamide], for which the IC50 was below 100 nM at hALDH1a3 [8], below 100 nM at mALDH1a3, 120 nM at hALDH1a2 [1] and 172 nM at mALDH1a2.

The values are drawn from patent publication US12054475B2, “Substituted heterocycles as aldehyde dehydrogenase inhibitors” (KayoThera Inc., priority 2021, dated 2024).
